Assay results reported in patent US8765727B2, “Macrocyclic compounds and their use as kinase inhibitors” (Incyte Corporation, priority 2009, dated 2014).

Legend:
Format in all cases: biochemical
[1] = target: human JAK1 (a.a. 837-1142) catalytic domain (Homo sapiens, UniProt P23458); test: In vitro JAK kinase assay (HTRF), JAK1; conditions: 90 μM ATP, 500 nM peptide, room temperature 1 hr
Method: (§1) One or more compounds herein were tested for inhibitory activity of JAK targets according to the following in vitro assay described in Park et al., Analytical Biochemistry 1999, 269, 94-104. The catalytic domains of human JAK1 (a.a. 837-1142), JAK2 (a.a. 828-1132) and JAK3 (a.a. 781-1124) with an N-terminal His tag were expressed using baculovirus in insect cells and purified. The catalytic activity of JAK1, JAK2 or JAK3 was assayed by measuring the phosphorylation of a biotinylated peptide. The phosphorylated peptide was detected by homogenous time resolved fluorescence (HTRF). […] The ATP concentration in the reactions was 90 μM for JAK1, 30 μM for JAK2 and 3 μM for JAK3. Reactions were carried out at room temperature for 1 hr and then stopped with 20 μL 45 mM EDTA, 300 nM SA-APC, 6 nM Eu-Py20 in assay buffer (Perkin Elmer, Boston, Mass.). Binding to the Europium labeled antibody took place for 40 minutes and HTRF signal was measured on a Fusion plate reader (Perkin Elmer, Boston, Mass.).

[2] = target: human JAK2 (a.a. 828-1132) catalytic domain (Homo sapiens (Human), UniProt O60674); test: In vitro JAK kinase assay (HTRF), JAK2; conditions: 30 μM ATP, 500 nM peptide, room temperature 1 hr
Method: One or more compounds herein were tested for inhibitory activity of JAK targets according to the following in vitro assay described in Park et al., Analytical Biochemistry 1999, 269, 94-104. The catalytic domains of human JAK1 (a.a. 837-1142), JAK2 (a.a. 828-1132) and JAK3 (a.a. 781-1124) with an N-terminal His tag were expressed using baculovirus in insect cells and purified. The catalytic activity of JAK1, JAK2 or JAK3 was assayed by measuring the phosphorylation of a biotinylated peptide. The phosphorylated peptide was detected by homogenous time resolved fluorescence (HTRF). […] Binding to the Europium labeled antibody took place for 40 minutes and HTRF signal was measured on a Fusion plate reader (Perkin Elmer, Boston, Mass.).

[3] = target: human JAK3 (a.a. 781-1124) catalytic domain (Homo sapiens (Human), UniProt P52333); test: In vitro JAK kinase assay (HTRF), JAK3; conditions: 3 μM ATP, 500 nM peptide, room temperature 1 hr
Method: as §1

TYK2 = TYK2 (Homo sapiens (Human), UniProt P29597); test: TYK2 assay (as described by Thompson et al.)
Description: The invention will be described in greater detail by way of specific examples. The following examples are offered for illustrative purposes, and are not intended to limit the invention in any manner. Those of skill in the art will readily recognize a variety of non-critical parameters which can be changed or modified to yield essentially the same results. In some instances where the compounds of the examples were isolated by preparative HPLC in the presence of trifluoroacetic acid (TFA) or other acid, the compound may have been obtained as the corresponding salt. […] Certain compounds described in Tables 1 and in the Example section were tested for inhibitory activity of JAK/ALK targets according to assays such as those described herein or those known in the art [e.g., ALK assays described in WO 04/079326; and TYK2 assays described by James E. Thompson et. al, “Photochemical preparation of a pyridone containing tetracycle: A JAK protein kinase inhibitor,” Bioorganic & Medicinal Chemistry Letters, Volume 12, Issue 8, 22 Apr. 2002, Pages 1219-1223]. […] Some exemplary data of the compounds of the invention are shown in Table 1 in the experimental section.

[4] = target: Recombinant Human Anaplastic Lymphoma Kinase (Homo sapiens (Human), UniProt Q9UM73); test: ALK HTRF kinase assay; conditions: 90 μM ATP, 0.25 nM enzyme, 2 hours at 25° C.
Method: Materials: Recombinant Human Anaplastic Lymphoma Kinase was purchased from Invitrogen, Carlsbad, Calif. Peptide substrate (Biotin-[…]-amide) was custom synthesized at EZBiolab, Westfield, Ind. Streptavidin conjugated SureLight-Allophycocyania and LANCE Eu-W1024 labeled anti-phosphotyrosine antibody were from Perkin-Elmer, Boston, Mass. Microplates were from Corning Inc., Acton, Mass. All other reagents were from Sigma, St. Louis, Mo.
HTRF kinase assay: 40 μL reactions were run in black 384 well polystyrene plates in assay buffer (50 mM Tris, pH 7.8, 100 mM NaCI, 0.1 mg/mL BSA, 5 mM DTT), containing 0.5 μM Biotinylated peptide substrate, 10 mM MgCl2, 90 μM ATP, and 0.25 nM enzyme for 2 hours at 25° C. Reactions were stopped by addition of 20 μL assay buffer supplemented with an additional 50 mM NaCl, 0.4 mg/mL BSA, 45 mM EDTA, 4.5 nM LANCE Eu-W1024 labeled anti-phosphotyrosine antibody and 200 nM streptavidin conjugated SureLight-allophycocyanin. Plates were read in Fusion α-FP instrument (Perkin-Elmer). The concentrations needed to reach 50% inhibition, the IC50 value, were determined by fitting the assay signal to the following equation using Graphpad Prizm. Signal=Bottom+(Top−Bottom)/(1+10^((Log(IC50)−Log [I])*Hill Slope) Bottom and Top refer to the post and pre-transition baselines, respectively.

Chain of human JAK3 (a.a. 781-1124) catalytic domain (P52333 781-1124): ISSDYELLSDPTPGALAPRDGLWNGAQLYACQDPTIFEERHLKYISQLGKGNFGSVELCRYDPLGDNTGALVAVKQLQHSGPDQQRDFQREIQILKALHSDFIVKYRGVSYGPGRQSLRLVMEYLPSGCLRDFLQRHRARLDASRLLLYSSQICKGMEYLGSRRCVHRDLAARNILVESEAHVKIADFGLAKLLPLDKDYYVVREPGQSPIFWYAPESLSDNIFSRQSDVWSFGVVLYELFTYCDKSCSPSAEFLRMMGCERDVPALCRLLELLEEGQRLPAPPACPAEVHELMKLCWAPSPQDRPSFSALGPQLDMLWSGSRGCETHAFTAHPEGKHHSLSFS
Chain of human JAK2 (a.a. 828-1132) catalytic domain (O60674 828-1132): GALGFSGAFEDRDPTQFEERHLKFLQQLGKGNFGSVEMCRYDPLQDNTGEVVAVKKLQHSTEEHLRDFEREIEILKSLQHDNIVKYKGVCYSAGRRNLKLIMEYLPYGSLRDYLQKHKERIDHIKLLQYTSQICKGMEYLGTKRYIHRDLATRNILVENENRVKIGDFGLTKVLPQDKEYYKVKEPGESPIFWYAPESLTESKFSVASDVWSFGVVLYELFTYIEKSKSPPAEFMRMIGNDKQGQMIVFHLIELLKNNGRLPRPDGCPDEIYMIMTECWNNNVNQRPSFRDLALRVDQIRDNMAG
Chain of Recombinant Human Anaplastic Lymphoma Kinase (Q9UM73 19-1620): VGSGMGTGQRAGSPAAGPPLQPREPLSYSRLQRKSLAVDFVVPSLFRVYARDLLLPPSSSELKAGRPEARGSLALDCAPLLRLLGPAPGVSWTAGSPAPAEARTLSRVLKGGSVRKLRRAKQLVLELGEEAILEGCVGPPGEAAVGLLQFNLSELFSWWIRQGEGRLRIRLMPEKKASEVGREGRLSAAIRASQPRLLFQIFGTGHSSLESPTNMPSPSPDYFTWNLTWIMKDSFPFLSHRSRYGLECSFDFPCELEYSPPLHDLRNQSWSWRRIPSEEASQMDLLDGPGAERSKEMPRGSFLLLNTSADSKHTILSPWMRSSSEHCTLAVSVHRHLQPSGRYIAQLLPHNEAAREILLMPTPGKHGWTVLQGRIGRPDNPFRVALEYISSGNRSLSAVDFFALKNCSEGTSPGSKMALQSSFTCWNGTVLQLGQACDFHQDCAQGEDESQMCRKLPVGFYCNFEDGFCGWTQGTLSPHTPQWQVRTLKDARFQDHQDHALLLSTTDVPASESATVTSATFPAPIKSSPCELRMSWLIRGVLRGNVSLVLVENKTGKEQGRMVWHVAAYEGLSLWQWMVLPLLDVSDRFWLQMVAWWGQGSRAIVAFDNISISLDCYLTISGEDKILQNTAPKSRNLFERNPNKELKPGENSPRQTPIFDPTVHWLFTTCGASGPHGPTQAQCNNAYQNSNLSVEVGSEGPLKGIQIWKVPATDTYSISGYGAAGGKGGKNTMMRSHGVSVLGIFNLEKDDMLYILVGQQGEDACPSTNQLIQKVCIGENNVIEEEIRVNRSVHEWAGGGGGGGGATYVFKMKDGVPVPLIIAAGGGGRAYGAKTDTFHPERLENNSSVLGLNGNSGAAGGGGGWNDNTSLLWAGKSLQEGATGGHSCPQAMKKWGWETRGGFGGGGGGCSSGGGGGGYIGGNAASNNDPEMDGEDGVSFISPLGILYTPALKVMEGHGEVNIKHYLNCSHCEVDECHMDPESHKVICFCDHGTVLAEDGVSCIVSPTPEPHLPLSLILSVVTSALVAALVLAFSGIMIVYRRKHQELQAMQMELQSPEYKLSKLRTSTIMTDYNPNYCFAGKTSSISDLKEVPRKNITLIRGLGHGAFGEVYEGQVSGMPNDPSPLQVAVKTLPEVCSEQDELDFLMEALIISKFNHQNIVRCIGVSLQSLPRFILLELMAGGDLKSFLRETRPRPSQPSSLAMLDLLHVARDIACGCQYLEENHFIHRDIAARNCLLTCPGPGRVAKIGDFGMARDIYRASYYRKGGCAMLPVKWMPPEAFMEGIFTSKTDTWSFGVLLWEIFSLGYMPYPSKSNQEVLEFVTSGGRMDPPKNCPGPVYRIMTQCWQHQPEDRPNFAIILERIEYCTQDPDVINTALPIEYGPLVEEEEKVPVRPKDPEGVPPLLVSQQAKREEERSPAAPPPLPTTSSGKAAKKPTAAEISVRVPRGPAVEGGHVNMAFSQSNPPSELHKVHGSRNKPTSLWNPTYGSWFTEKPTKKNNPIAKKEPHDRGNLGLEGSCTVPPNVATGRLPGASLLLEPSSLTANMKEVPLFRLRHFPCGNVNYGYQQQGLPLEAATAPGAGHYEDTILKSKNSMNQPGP
Chain of TYK2 (P29597 whole entry, species assumed): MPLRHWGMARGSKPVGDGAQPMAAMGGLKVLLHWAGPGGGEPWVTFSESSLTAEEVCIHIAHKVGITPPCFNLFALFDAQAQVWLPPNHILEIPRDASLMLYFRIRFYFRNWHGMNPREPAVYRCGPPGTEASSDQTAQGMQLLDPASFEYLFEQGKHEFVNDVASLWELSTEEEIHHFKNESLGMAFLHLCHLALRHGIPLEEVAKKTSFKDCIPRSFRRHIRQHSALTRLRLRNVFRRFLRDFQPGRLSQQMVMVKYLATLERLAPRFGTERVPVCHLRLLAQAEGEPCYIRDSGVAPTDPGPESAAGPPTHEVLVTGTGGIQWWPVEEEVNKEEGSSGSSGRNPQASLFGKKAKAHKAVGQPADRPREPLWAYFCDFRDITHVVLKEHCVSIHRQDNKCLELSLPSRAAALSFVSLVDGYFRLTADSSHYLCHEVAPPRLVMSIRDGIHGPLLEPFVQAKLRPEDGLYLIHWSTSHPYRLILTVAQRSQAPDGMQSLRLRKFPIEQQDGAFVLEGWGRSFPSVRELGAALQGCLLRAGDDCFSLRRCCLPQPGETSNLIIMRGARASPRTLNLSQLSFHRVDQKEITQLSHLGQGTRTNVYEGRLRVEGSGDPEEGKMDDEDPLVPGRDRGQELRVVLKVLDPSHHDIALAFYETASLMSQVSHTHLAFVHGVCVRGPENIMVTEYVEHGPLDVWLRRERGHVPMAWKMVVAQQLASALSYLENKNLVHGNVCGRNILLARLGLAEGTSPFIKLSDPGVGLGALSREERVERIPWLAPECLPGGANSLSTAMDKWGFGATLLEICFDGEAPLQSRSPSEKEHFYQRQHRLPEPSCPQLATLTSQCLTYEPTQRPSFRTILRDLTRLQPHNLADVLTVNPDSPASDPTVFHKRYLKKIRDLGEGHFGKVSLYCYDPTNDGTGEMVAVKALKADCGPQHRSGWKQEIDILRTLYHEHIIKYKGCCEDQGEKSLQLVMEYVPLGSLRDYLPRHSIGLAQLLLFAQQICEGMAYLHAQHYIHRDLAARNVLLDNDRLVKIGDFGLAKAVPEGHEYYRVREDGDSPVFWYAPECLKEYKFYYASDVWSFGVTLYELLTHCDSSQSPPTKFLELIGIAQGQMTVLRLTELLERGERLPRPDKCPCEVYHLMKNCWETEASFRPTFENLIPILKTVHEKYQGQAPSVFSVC

Row | Structure (SMILES) | IC50 [1] [µM] | IC50 [2] [µM] | IC50 [3] [µM] | IC50 (TYK2) [µM] | IC50 [4] [µM]
1 | Nc1ccc2cc1CCc1cncc(c1)Nc1ncc(Cl)c(n1)NC2 [Example 17, 6-Chloro-2,4,8,19,23-pentaazatetracyclo[15.3.1.1(3,7).1(10,14)]tricosa-1(21),3(23),4,6,10(22),11,13,17,19-nonaen-13-amine] | 0.102 | 0.447 | 0.114 | 0.386 | > 1
2 | O=C(Nc1ccc2cc1CCc1cncc(c1)Nc1ncc(Cl)c(n1)NC2)c1ccccc1 [Example 18, N-[6-Chloro-2,4,8,19,23-pentaazatetracyclo[15.3.1.1(3,7).1(10,14)]tricosa-1(21),3(23),4,6,10(22),11,13,17,19-nonaen-13-yl]benzamide bis(trifluoroacetate)] | > 1 | > 1 | > 1 | > 1 | > 1
3 | N#Cc1ccccc1S(=O)(=O)Nc1ccc2cc1CCc1cncc(c1)Nc1ncc(Cl)c(n1)NC2 [Example 19, N-[6-Chloro-2,4,8,19,23-pentaazatetracyclo[15.3.1.1(3,7).1(10,14)]tricosa-1(21),3(23),4,6,10(22),11,13,17,19-nonaen-13-yl]-2-cyanobenzenesulfonamide bis(trifluoroacetate)] | > 1 | > 1 | > 1 | > 1 | > 1
